What was measured:
Assay type in all cases: cell-based, human
[1] = tested on: HCT 116; assay: Apoptosis induction (Cell Death Detection ELISA PLUS); conditions: for Apoptosis inducing activity (A405-A492), Average: HCT 116, oligonucleotide 520 nM, three days
Description: (§1) Human colon cancer cell line COLO 205 acquired from ATCC was suspended in the RPMI-1640 medium (containing 25 mM HEPES) supplemented with 10% fetal calf serum (ATCC), and seeded at the cell density of 4000 per well in 96-well collagen type I coated plate (IWAKI). Human colon cancer cell line LS 174T acquired from ATCC was suspended in the Eagle's MEM, which is supplied from Invitrogen, supplemented with 10% fetal calf serum (ATCC), and seeded at the cell density of 3000 per well in 96-well flat bottom culture plate (BD Falcon). Human colon cancer cell line HCT 116 (ATCC) was suspended in D-MEM medium (containing 10 mM HEPES), which is supplied from Invitrogen, supplemented with 10% fetal calf serum (ATCC), and seeded at the cell density of 3000 per well in 96-well flat bottom culture plate (BD Falcon). After incubation under 5% CO2 gas flow at 37° C. for overnight, antisense oligonucleotide was transfected.
(§2) Antisense oligonucleotide sequence (SEQ ID NO: 123), which hybridizes to the translation region of TGR23 gene, was designed. Phosphorothioate-oligonucleotide was synthesized and purified by HPLC to use the transfection experiment (hereinafter, referred to as antisense oligonucleotide). For control, a reverse sequence (SEQ ID NO: 124) of the base sequence represented by SEQ ID NO: 123 was phosphorothioated and purified by HPLC to use (hereinafter, referred to as control oligonucleotide).
(§3) Specifically, in the case of COLO 205, to FuGENE™6 Transfection Reagent (Roche Diagnostics), which was diluted 167 fold with Opti-MEM I (Invitrogen), antisense oligonucleotide or control oligonucleotide was added. The mixed oligonucleotide solution was added to the plate at the ratio of 65 μl per well. The final concentration of oligonucleotide was adjusted to 200 nM. In the case of LS 174T, to Lipofectamine™2000 (Invitrogen), which was diluted 32 fold with Opti-MEM I (Invitrogen), antisense oligonucleotide or control oligonucleotide, which was diluted with Opti-MEM I (Invitrogen), was added at the ratio of 1:1. The mixed oligonucleotide solution was added to the plate at the ratio of 50 μl per well. The final concentration of oligonucleotide was adjusted to 33 nM. In the case of HCT 116, to OLIGOFECTAMINE™ Reagent (Invitrogen), which was diluted 5 fold with Opti-MEM I (Invitrogen), antisense oligonucleotide or control oligonucleotide, which was diluted with Opti-MEM I (Invitrogen), was added at the ratio of 3:8. The mixed oligonucleotide solution was added to the plate at the ratio of 40 μl per well. The final concentration of oligonucleotide was adjusted to 520 nM.
(§4) Under the above conditions, culture was continued for further three days. Using Cell Death Detection ELISA^PLUS Kit (Roche Diagnostics), in accordance with the attached protocol, apopyosis induction activity by the above oligonucleotide was measured.

[2] = tested on: LS 174T; assay: as above; conditions: for Apoptosis inducing activity (A405-A492), Average: LS174T, oligonucleotide 33 nM, three days
Description: as §1, §2, §3, §4

[3] = tested on: COLO 205; assay: as above; conditions: for Apoptosis inducing activity (A405-A492), Average: COLO 205, oligonucleotide 200 nM, three days
Description: as §1, §2, §3, §4

[4] = tested on: TGR23 gene in COLO 205; assay: Reduction of TGR23 gene expression (TaqMan PCR); conditions: COLO 205, overnight after transfection
Description: (§5) The human colon cancer cell lines COLO 205 and LS 174T, wherein both were used in Example 46, were suspended in the same medium as that used in Example 46. The COLO 205 was seeded at the cell density of 24,000 per well to 24-well collagen type I coated plate (IWAKI), and the LS 174T was seeded at the cell density of 18,000 per well to 24-well flat bottom tissue culture plate (BD Falcon). After cell culture under 5% CO2 gas flow at 37° C. for overnight, in accordance with the method described in Example 46, the antisense oligonucleotide and control oligonucleotide, wherein both were used in Example 46, were transfected. Herein, adding volume of the oligonucleotide solution per well was 390 μl for COLO 205 and 300 μl for LS 174T. After transfection, the cells were cultured under 5% CO2 gas flow at 37° C. for overnight. Subsequently, using RNeasy Mini Total RNA Kit (QIAGEN), total RNA was extracted. Using the thus obtained total RNA as a template and TaqMan Reverse Transcription Reagents (Applied Biosystems), according to the attached protocol, reverse transcription reaction was carried out. Then using TaqMan Universal PCR Master Mix (Applied Biosystems), to the reaction sixture, cDNA corresponding 1.5 to 3 ng of total RNA as a template, 500 nM each of two primers (SEQ ID NO: 9 and SEQ ID NO: 10) and 100 nM FM-labeled probe (SEQ ID NO: 11) were added. The expressed copy numbers of the TGR23 gene were measured. The PCR reaction comprised the incubation at 50° C. for 2 minutes and 95° C. for 10 minutes, followed by the cycle set to include at 95° C. for 15 seconds and at 60° C. for one minute, which is repeated 40 times. When the antisense oligonucleotide and the control oligonucleotide were not transfected, an expression level of the TGR23 gene per 1 ng of total RNA was 620 copies for COLO 205 and 290 copies for LS 174T, whereas in the group with antisense oligonucleotide, it was 210 copies for COLO 205 and 150 copies for LS 174T. […] On the other hand, in the group with control oligonucleotide used as a negative control, the expression was 590 copies for COLO 205 and 280 copies for LS 174T, wherein it was not observed a statistically significant reduction of expression level, compared with non-transfection group.

[5] = tested on: TGR23 gene in LS 174T; assay: Reduction of TGR23 gene expression (TaqMan PCR); conditions: overnight after transfection
Description: as §5

Row | Substance | apoptosis induction activity compared with control oligonucleotide ([1]; HCT 116, in which TGR23 is not expressed) | Apoptosis inducing activity (A405-A492), Average [1] | Apoptosis inducing activity (A405-A492), Average [2] | apoptosis induction activity relative to control oligonucleotide ([2]; LS 174T, p≦0.01) [fold] | Apoptosis inducing activity (A405-A492), Average [3] | apoptosis induction activity relative to control oligonucleotide ([3]; COLO 205, p≦0.05) [fold] | expression level of the TGR23 gene per 1 ng of total RNA [4] [copies] | expression level of the TGR23 gene per 1 ng of total RNA [5] [copies]
1 | antisense oligonucleotide: phosphorothioate oligonucleotide which hybridizes to the translation region of TGR23 gene (antisense GACCCACAGAGTTATCAATT; DNA, all phosphorothioate, methylation of C not given here) | did not exhibit a significant apoptosis induction activity | 0.68 | 1.1 | 1.3 | 0.83 | 1.6 | 210 | 150
2 | control oligonucleotide: phosphorothioated reverse sequence of SEQ ID NO: 123, negative control (TTAACTATTGAGACACCCAG; DNA, all phosphorothioate, methylation of C not given here) [reference compound] |  | 0.72 | 0.88 |  | 0.52 |  | 590 | 280

— patent US7323541B2, “Polypeptide DNA thereof and use of the same” (Takeda Pharmaceutical Company Limited, priority 2001, dated 2008)
